Assay results taken from US10266544B2, “Aryl substituted aminomethyl spectinomycin analogs as antibacterial agents” (ST. JUDE CHILDREN'S RESEARCH HOSPITAL, INC., priority 2013, dated 2019).
Where a name gives a salt, the structure may show the parent alone. Read-outs that look alike come from different tables or passages of the source.

Experiments:
Type in all cases: cell-based
[1] = tested on: Klebsiella pneumoniae (ATCC 33495); assay: MIC determination, microbroth dilution; settings: ATCC33495
Moraxella catarrhalis = assay: MIC determination (Table 6)
[2] = tested on: acinetobacter baumannii (ATCC 19606); assay: MIC determination, microbroth dilution; settings: ATCC19606
E. coli K12 ΔtolC = assay: microbe, parasite or virus in culture; settings: Escherichia coli, read-out: MIC E.c. Δtolc
[3] = tested on: Bacillus anthracis, Sterne 34F2; assay: microbe, parasite or virus in culture; settings: STERNE34F2, read-out: MIC B.a.
Listeria monocytogenes = assay: MIC determination (Table 6)
[4] = tested on: Burkholderia cepacia (ATCC 25416); assay: MIC determination, microbroth dilution; settings: Burkholderia cepacia
[5] = tested on: Escherichia coli (ATCC 700926); assay: MIC determination, microbroth dilution
[6] = tested on: Bacillus subtilis (ATCC 23857); assay: MIC determination, microbroth dilution
[7] = tested on: Pseudomonas aeruginosa (PA01); assay: MIC determination, microbroth dilution
[8] = tested on: Staphylococcus aureus (ATCC 29213); assay: MIC determination, microbroth dilution; settings: ATCC29213; Staphylococcus aureus (ATCC 29213); read-out: MIC S.a.
Bacillus anthracis = assay: microbe, parasite or virus in culture; settings: read-out: MIC B.a.
[9] = tested on: Proteus mirabilis (ATCC 25933); assay: MIC determination, microbroth dilution; settings: ATCC25933
[10] = tested on: M. tuberculosis clinical isolates; assay: microbe, parasite or virus in culture; settings: Mycobacterium tuberculosis
[11] = tested on: Streptococcus pyogenes (ATCC 700294); assay: MIC determination, microbroth dilution
[12] = tested on: MRSA, Staphylococcus aureus (NRS70); assay: MIC determination, microbroth dilution; settings: Staphylococcus aureus (NRS70); read-out: MIC MRSA
[13] = tested on: Neisseria meningitides (ATCC 13077); assay: Disc diffusion assay; settings: ATCC13077, 4 μg per disc, read-out: Zone of inhibition N.m.
[14] = tested on: Stenotrophomonas maltophilia (ATCC 13637); assay: MIC determination, microbroth dilution
[15] = tested on: Legionella pneumophila (ATCC 33153); assay: microbe, parasite or virus in culture; settings: ATCC33153, 72 h, read-out: Zone of inhibition L.p.
[16] = tested on: Haemophilus influenza (ATCC 49247); assay: microbe, parasite or virus in culture; settings: ATCC49247; Haemophilus influenza; 4 μg per disc; range of at least two experiments; read-out: Zone of inhibition H.i.
[17] = tested on: Proteus vulgaris (ATCC 33420); assay: MIC determination, microbroth dilution; settings: ATCC33420
[18] = tested on: Neisseria gonorrhoeae (ATCC 49226); assay: Disc diffusion assay; settings: ATCC49226, 4 μg per disc, read-out: Zone of inhibition N.g.
[19] = tested on: Streptococcus pneumoniae (R6); assay: MIC determination, microbroth dilution; settings: read-out: MIC S. pn.
[20] = ATCC25416, read-out: MIC B.c., Burkholderia cepacia (ATCC 25416)
[21] = ATCC25416, read-out: MIC B.c., Burkholderia cepacia, Table 6
[22] = ATCC700926, Escherichia coli (ATCC 700926), read-out: MIC E.c.
[23] = ATCC23857, Bacillus subtilis (ATCC 23857), read-out: MIC B.s.
[24] = ATCC700294, Streptococcus pyogenes (ATCC 700294), read-out: MIC S. py.
[25] = ATCC13637, Stenotrophomonas maltophilia (ATCC 13637), read-out: MIC S.m.
[26] = Bacillus subtilis, ATCC23857, read-out: MIC B.s.
[27] = Streptococcus pyogenes, ATCC700294, read-out: MIC S. py.

SMILES | MIC [1] | MIC (Moraxella catarrhalis) | MIC [2] | MIC (E. coli K12 ΔtolC) | MIC [3] | MIC (Listeria monocytogenes) | MIC [4, 20] | MIC [4, 21] | MIC [5, 22] | MIC [7] | MIC [8] | MIC (Bacillus anthracis) | MIC [9] | MIC ([10]; H37RV, read-out: MIC H37Rv) | MIC [12] | zone of inhibition at 4 µg/disc [13] | zone of inhibition at 4 µg/disc [15] | zone of inhibition at 4 µg/disc [16] | MIC [17] | zone of inhibition at 4 µg/disc [18] | further results
CN[C@@H]1[C@H](O)[C@H](NC)[C@H]2O[C@]3(O)[C@H](O[C@@H]2[C@H]1O)O[C@H](C)C[C@@]3(O)CNCCN1CCOCC1 [compound 51, 3′-(R)-3′-[(2-morpholinoethyl)aminomethyl]dihydrospectinomycin tetrahydrochloride] | 100 to 200 µg/mL | 3.1 µg/mL | > 200 µg/mL | 25 to 50 µg/mL | 100 to 200 µg/mL | 25 µg/mL | > 200 µg/mL | > 200 µg/mL | 50 µg/mL | ≥ 200 µg/mL | 100 to 200 µg/mL | 100 to 200 µg/mL | 50 to 100 µg/mL | 25 µg/mL | > 200 µg/mL | 6 mm | 22 mm | 6 mm | ≥ 200 µg/mL | 0 mm | MIC [6, 23]: 50 to 100 µg/mL; MIC ([10]; read-out: MIC TN022): 50 µg/mL; MIC ([10]; read-out: MIC TN026): 100 µg/mL; MIC [11, 24]: 100 µg/mL; MIC [14, 25]: 50 µg/mL; MIC ([19]; Streptococcus pneumoniae (R6)): 100 µg/mL
CN[C@@H]1[C@H](O)[C@H](NC)[C@H]2O[C@]3(O)[C@H](O[C@@H]2[C@H]1O)O[C@H](C)C[C@@]3(O)CNCCC1CCOCC1 [compound 52, 3′-(R)-3′-[(2-(tetrahydro-2H-pyran-4-yl)ethyl)aminomethyl]dihydrospectinomycin Trihydrochloride] | 100 µg/mL | 3.1 µg/mL | > 200 µg/mL | 25 to 50 µg/mL | 50 to 100 µg/mL | 12.5 µg/mL | > 200 µg/mL | > 200 µg/mL | 50 to 100 µg/mL | > 200 µg/mL | 200 µg/mL | 50 to 100 µg/mL | 200 µg/mL | 3.1 µg/mL | > 200 µg/mL | 12 mm | 32 mm | 10 mm | > 200 µg/mL | 7 mm | MIC [6, 23]: 25 µg/mL; MIC ([10]; read-out: MIC TN022): 6.3 µg/mL; MIC ([10]; read-out: MIC TN026): 3.1 µg/mL; MIC [11, 24]: 100 µg/mL; MIC [14, 25]: 12.5 to 25 µg/mL; MIC ([19]; Streptococcus pneumoniae (R6)): 25 to 50 µg/mL
CN[C@@H]1[C@H](O)[C@H](NC)[C@H]2O[C@]3(O)[C@H](O[C@@H]2[C@H]1O)O[C@H](C)C[C@@]3(O)CNCCc1ccc(OC)cc1 [compound 53, 3′-(R)-3′-[(4-methoxy)phenethylaminomethyl]dihydrospectinomycin Trihydrochloride] | 100 to 200 µg/mL | 3.1 µg/mL | > 200 µg/mL | 12.5 µg/mL | 25 to 50 µg/mL | 6.3 µg/mL | > 200 µg/mL | > 200 µg/mL | 50 µg/mL | > 200 µg/mL | 25 µg/mL | 25 to 50 µg/mL | > 200 µg/mL | 6.3 µg/mL | 100 µg/mL | 10 mm | 30 mm | 11 mm | 200 µg/mL | 12 mm | MIC [6, 26]: 12.5 µg/mL; MIC ([10]; read-out: MIC TN022): 12.5 µg/mL; MIC ([10]; read-out: MIC TN026): 12.5 µg/mL; MIC [11, 27]: 12.5 to 25 µg/mL; MIC ([14]; Stenotrophomonas maltophilia, ATCC13637, read-out: MIC S.m.): 12.5 µg/mL; MIC ([19]; Streptococcus pneumoniae): 12.5 µg/mL
CN[C@@H]1[C@H](O)[C@H](NC)[C@H]2O[C@]3(O)[C@H](O[C@@H]2[C@H]1O)O[C@H](C)C[C@@]3(O)CNCCc1ccc(Cl)cc1 [compound 54, 3′-(R)-3′-[(4-chloro)phenethylaminomethyl]dihydrospectinomycin Trihydrobromide] | > 200 µg/mL | 6.3 µg/mL | > 200 µg/mL | 12.5 to 25 µg/mL | 200 µg/mL | 25 µg/mL | > 200 µg/mL | > 200 µg/mL | 50 to 100 µg/mL | > 200 µg/mL | 100 to 200 µg/mL | 200 µg/mL | > 200 µg/mL | 25 µg/mL | > 200 µg/mL | 7 mm | 15 mm | 9 mm | > 200 µg/mL | 11 mm | MIC [6, 23]: 25 to 50 µg/mL; MIC ([10]; read-out: MIC TN022): 25 µg/mL; MIC ([10]; read-out: MIC TN026): 50 µg/mL; MIC [11, 24]: 25 µg/mL; MIC [14, 25]: ≥ 200 µg/mL; MIC ([19]; Streptococcus pneumoniae (R6)): 25 µg/mL
CN[C@@H]1[C@H](O)[C@H](NC)[C@H]2O[C@]3(O)[C@H](O[C@@H]2[C@H]1O)O[C@H](C)C[C@@]3(O)CNCCc1ccc(C)c(C)c1 [compound 55, 3′-(R)-3′-[(3,4-dimethyl)phenethylaminomethyl]dihydrospectinomycin Trihydrochloride] | > 200 µg/mL | 3.1 µg/mL | > 200 µg/mL | 12.5 to 25 µg/mL | 100 µg/mL | 25 µg/mL | > 200 µg/mL | > 200 µg/mL | 100 to 200 µg/mL | > 200 µg/mL | 100 µg/mL | 100 µg/mL | > 200 µg/mL | 25 µg/mL | > 200 µg/mL | 8 mm | 15 mm | 9 mm | > 200 µg/mL | 11 mm | MIC [6, 23]: 50 µg/mL; MIC ([10]; read-out: MIC TN022): 50 µg/mL; MIC ([10]; read-out: MIC TN026): 50 µg/mL; MIC [11, 27]: 12.5 to 25 µg/mL; MIC [14, 25]: 50 µg/mL; MIC ([19]; Streptococcus pneumoniae (R6)): 12.5 µg/mL
CN[C@@H]1[C@H](O)[C@H](NC)[C@H]2O[C@]3(O)[C@H](O[C@@H]2[C@H]1O)O[C@H](C)C[C@@]3(O)CNCc1ccccc1Cl [compound 56, 3′-(R)-3′-[(2-chloro)benzylaminomethyl]dihydrospectinomycin Trihydrobromide] | > 200 µg/mL | 100 µg/mL | > 200 µg/mL | > 200 µg/mL | > 200 µg/mL | > 200 µg/mL | > 200 µg/mL | > 200 µg/mL | > 200 µg/mL | > 200 µg/mL | > 200 µg/mL | > 200 µg/mL | > 200 µg/mL | > 200 µg/mL | > 200 µg/mL | 0 mm | 0 mm | 0 mm | > 200 µg/mL | 0 mm | MIC [6, 23]: > 200 µg/mL; MIC [11, 24]: 50 µg/mL; MIC [14, 25]: > 200 µg/mL; MIC ([19]; Streptococcus pneumoniae (R6)): 100 µg/mL
CN[C@@H]1[C@H](O)[C@H](NC)[C@H]2O[C@]3(O)[C@H](O[C@@H]2[C@H]1O)O[C@H](C)C[C@@]3(O)CNCCc1ccc(OC(F)(F)F)cc1 [compound 57, 3′-(R)-3′-[(4-trifluoromethoxy)phenethylaminomethyl]dihydrospectinomycin Trihydrochloride] | > 200 µg/mL | 0.8 µg/mL | ≥ 200 µg/mL | 1.3 to 3.1 µg/mL | 25 µg/mL | 6.3 µg/mL | ≥ 200 µg/mL | ≥ 200 µg/mL |  | > 200 µg/mL | 25 µg/mL | 25 µg/mL | 200 µg/mL | 12.5 µg/mL | 50 to 100 µg/mL | 15 mm | 22 mm | 12 mm | 200 µg/mL | 14 mm | MIC ([5]; Escherichia coli, ATCC700926, read-out: MIC E.c.): 25 µg/mL; MIC [6, 26]: 12.5 µg/mL; MIC ([10]; read-out: MIC TN022): 6.3 µg/mL; MIC ([10]; read-out: MIC TN026): 25 µg/mL; MIC [11, 24]: 3.1 to 6.3 µg/mL; MIC [14, 25]: 50 to 100 µg/mL; MIC ([19]; Streptococcus pneumoniae (R6)): 3.1 µg/mL
